Assay results taken from patent US7375125B2, “Melanocortin-4 receptor binding compounds and methods of use thereof” (Ore Pharmaceuticals, Inc., priority 1999, dated 2008).
Where a name gives a salt, the structure may show the parent alone.

Tested on: lean C57BL/6J mice
Test: In vivo assay for MC4-R antagonist activity: food intake of food deprived lean mice treated with MT II
Conditions: 15 nmol intracerebroventricular prior to MT II 0.05 nmol, six hour period (FIGS. 2, 3)
Protocol: The following in vivo assay was used to test the effects of MC4-R antagonists on mice.
Male lean C57BL/6J mice were individually housed in macrolon cages (22±2 C.°; 12:12 h light/dark cycle with lights off at 6 pm). Tap water and mouse chow diet were given ad libitum. Mice were stereotaxically implanted with a chronic guide cannula aimed to the third ventricle (intracerabroventricular) one week prior to testing.
In this experiment, food deprived lean mice were injected intracerabroventricularly with either Compound N or Compound O, at a dose of 15 nmol prior to injection of MT II at the dose of 0.05 nmol.

SMILES	effect on food intake of mice treated with the MC4-R agonist MT II
COc1ccc([N+](=O)[O-])cc1CSc1ccccc1C1=NCCCN1 [N, 2-[2-(2-Methoxy-5-nitro-benzylsulfanyl)-phenyl]-1,4,5,6-tetrahydro-pyrimidine; hydrobromide]	partially reverses the effect
c1ccc(C2=NCCCN2)c(SCc2cccc3ccccc23)c1 [O, 2-[2-(Naphthalen-1-ylmethylsulfanyl)-phenyl]-1,4,5,6-tetrahydro-pyrimidine; hydrochloride]	did not significantly effect the food intake
